From patent publication US20090158455A1, “COMPOSITIONS AND METHODS FOR MODULATING LYSINE PRODUCTION” (priority 2005, published 2009)

Tests used:
[1] = tested on: maize LL-DAP transaminase; experiment: Inhibitors of LL-DAP transaminase, ortho aminobenzaldehyde assay; type: biochemical, maize (Zea mays); settings: substrate LL-DAP 0.5 mM
Description: (§1) For enzyme assays of crude proteins, extracts were prepared by grinding tissue in liquid nitrogen with 100 mM HEPESKOH (pH 7.6), followed by centrifugation at 10,000 g for 15 min, and then buffer exchange using an Amicon Ultra 30,000 MWCO filter. […] Reactions were incubated at 30° C. and the ΔA (440 nm) measured continuously. […] The reaction was incubated at 30° C., and the decrease in A340 was measured. […] The reaction was run to completion, determined by monitoring the increase in A340. […] The kinetic constants were calculated by nonlinear regression analysis using GraphPad Prizm version 4.03.
(§2) Assays for assessing the ability of certain compounds to inhibit LL-DAP aminotransferase have been performed and the results are shown below in Table V. The reactions were performed as described above.

[2] = target: A. thaliana LL-DAP transaminase (Arabidopsis thaliana, UniProt Q93ZN9); experiment: Inhibitors of LL-DAP transaminase, m-DAP dehydrogenase coupled assay; type: biochemical; settings: inhibitor 40 mM, substrate LL-DAP 0.05 mM
A. thaliana LL-DAP transaminase, sequence (Q93ZN9 40-461): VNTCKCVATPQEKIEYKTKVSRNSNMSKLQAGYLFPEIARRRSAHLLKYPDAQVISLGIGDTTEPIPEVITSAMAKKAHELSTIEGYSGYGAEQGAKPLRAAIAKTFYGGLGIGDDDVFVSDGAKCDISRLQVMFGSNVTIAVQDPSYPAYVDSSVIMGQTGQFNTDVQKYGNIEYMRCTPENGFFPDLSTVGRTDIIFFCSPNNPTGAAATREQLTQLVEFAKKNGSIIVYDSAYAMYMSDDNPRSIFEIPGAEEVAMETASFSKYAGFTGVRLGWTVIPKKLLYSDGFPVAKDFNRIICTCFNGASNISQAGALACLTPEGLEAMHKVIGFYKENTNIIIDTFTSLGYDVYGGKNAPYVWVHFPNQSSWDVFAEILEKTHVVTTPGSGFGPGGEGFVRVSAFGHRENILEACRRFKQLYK
Description: as §1, §2

[3] = target: T1, CT390 (Chlamydia trachomatis serovar D, UniProt O84395); experiment: Quantitative reverse assay of pure CT390; type: biochemical; settings: for Km: reverse assay, apparent Km; for Use as amino donor by CT390: reverse direction
T1 construct: His-Tag (N); made in house; host or cells: E. coli
T1 sequence (O84395 whole entry): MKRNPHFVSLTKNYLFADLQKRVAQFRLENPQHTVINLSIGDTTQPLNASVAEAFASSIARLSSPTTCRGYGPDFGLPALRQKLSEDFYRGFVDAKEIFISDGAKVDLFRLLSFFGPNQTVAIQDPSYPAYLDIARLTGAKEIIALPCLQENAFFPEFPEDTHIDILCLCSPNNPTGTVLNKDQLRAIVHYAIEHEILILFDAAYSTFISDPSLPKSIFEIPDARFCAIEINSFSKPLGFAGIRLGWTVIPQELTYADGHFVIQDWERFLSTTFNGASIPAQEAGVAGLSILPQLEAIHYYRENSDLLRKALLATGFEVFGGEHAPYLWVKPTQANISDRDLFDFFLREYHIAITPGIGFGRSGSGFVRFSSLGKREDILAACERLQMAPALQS

[4] = target: Methanothermobacter thermautotrophicus LL-DAP transaminase MTH52 (Methanothermobacter thermautotrophicus, UniProt O26158); experiment: Quantitative forward and reverse assays of purified LL-DAP transaminases (Example III); settings: reverse assay
Methanothermobacter thermautotrophicus LL-DAP transaminase MTH52, sequence (O26158 whole entry): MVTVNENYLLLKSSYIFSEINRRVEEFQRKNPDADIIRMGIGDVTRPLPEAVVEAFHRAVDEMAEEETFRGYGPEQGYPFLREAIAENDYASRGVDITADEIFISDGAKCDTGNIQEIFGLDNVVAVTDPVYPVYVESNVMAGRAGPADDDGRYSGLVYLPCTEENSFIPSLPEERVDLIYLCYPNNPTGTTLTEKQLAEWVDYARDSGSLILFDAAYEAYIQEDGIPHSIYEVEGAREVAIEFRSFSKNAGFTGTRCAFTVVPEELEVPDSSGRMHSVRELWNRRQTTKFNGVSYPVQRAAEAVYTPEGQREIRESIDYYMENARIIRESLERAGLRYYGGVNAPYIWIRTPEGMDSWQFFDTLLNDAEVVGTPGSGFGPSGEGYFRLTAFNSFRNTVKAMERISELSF
Description: This plasmid was transformed into E. coli BL21-CodonPlus®-RIPL for expression and purification of the recombinant protein.
For protein expression the E. coli strains were grown on LB at 37° C. to an OD600 nm of 0.5 and protein expression was then induced with 1 mM IPTG for 4 hr at 25° C. Cells were lysed by sonication in a solution of 50 mM sodium phosphate and 300 mM NaCl (pH 8.0). Metabolites in the extract were removed by buffer exchange using an Amicon Ultra 30,000 MWCO ultrafilter and sodium phosphate/NaCl buffer, and the concentrated soluble protein sample was used for measurement of enzyme activity as an initial assessment of enzyme function. When the recombinant protein was to be purified a larger cell culture was grown and lysed as described above, but the buffer exchange step was not carried out. […] The pure protein was then concentrated in an Amicon Ultra 30,000 MWCO ultrafilter, replacing the elution buffer with 100 mM HepesKOH, pH 7.6.

[5] = target: T1, CT390; experiment: Quantitative forward assay of pure CT390; type: biochemical; settings: apparent Km
Description: All enzyme assays were carried out essentially as described in Example I. Incubation temperature was 30° C. Kinetic constants were determined by varying substrate concentrations while keeping the co-substrate level constant at the concentration described below. Kinetic data were analyzed by non-linear regression analysis using GraphPad Prizm Version 4.03.
Quantitative assay of the physiologically forward reaction was carried out sequentially in a pre-reaction to generate THDP from m-DAP followed by an LL-DAP aminotransferase assay. […] The pre-reaction was run to completion, monitored by the increase in absorbance at 340 nm resulting from NADPH formation. The aminotransferase reaction was monitored at 398 nm to measure the formation of thioNADH. […] Subsequently, the aminotransferase assay was initiated by addition of CT390, bringing the total reaction volume to 1 mL.

[6] = target: Arabidopsis thaliana LL-DAP-AT (At4g33680), wild type, recombinant (lacks first 39 amino acids, hexa-His and S-TAG), SEQ ID NO: 7 (Arabidopsis thaliana, UniProt Q93ZN9); experiment: Quantitative coupled reverse and forward assays of pure recombinant LL-DAP-AT (Table III); type: biochemical
Arabidopsis thaliana LL-DAP-AT (At4g33680), wild type, recombinant (lacks first 39 amino acids, hexa-His and S-TAG), SEQ ID NO: 7, sequence (Q93ZN9 40-461): as the sequence (Q93ZN9 40-461) above
Description: as §1
For this reason quantitative coupled assays were developed to assess the enzyme activity in both the reverse and forward directions. […] The reaction sequence is shown in Scheme 1.
The overall reaction series is shown in Scheme 2.
Thio-NADH has an absorbance maximum at 398 nm, which can be discerned from NADPH, which has an absorbance maximum at 340 nm. FIG. 4 illustrates such a reaction. […] Two plots are shown using 0.55 and 0.055 mM m-DAP.

[7] = target: T2, Arabidopsis LL-DAP-AT (Arabidopsis thaliana, UniProt Q93ZN9); experiment: OAB assay of LL-DAP-AT activity in Arabidopsis leaf extract; type: biochemical; settings: added at 1,000-fold excess over LL-DAP; data not shown
T2 construct: The protein extract was prepared from Arabidopsis leaves by grinding in liquid nitrogen; from tissue; host or cells: Arabidopsis leaves / axenically grown plants, crude soluble extract
T2 sequence (Q93ZN9 46-461): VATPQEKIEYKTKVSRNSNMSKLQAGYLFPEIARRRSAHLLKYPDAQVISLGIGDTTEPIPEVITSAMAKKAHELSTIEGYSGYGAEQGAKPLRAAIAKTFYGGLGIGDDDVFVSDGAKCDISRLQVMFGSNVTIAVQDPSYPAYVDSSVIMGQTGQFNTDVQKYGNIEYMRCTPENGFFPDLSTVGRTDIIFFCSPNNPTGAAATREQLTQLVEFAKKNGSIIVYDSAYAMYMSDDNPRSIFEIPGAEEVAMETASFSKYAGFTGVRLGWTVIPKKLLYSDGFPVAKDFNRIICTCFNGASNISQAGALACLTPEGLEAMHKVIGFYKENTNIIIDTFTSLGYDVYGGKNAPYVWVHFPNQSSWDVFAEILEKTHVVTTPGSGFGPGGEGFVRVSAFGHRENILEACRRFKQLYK
Description: FIGS. 2A and 2B. LL-DAP-AT activity in Arabidopsis. […] The reaction was incubated at 30° C. The protein extract was prepared from Arabidopsis leaves by grinding in liquid nitrogen with 100 mM HEPESKOH (pH 7.6), centrifugation at 10,000 g for 15 min, and buffer exchange using an Amicon Ultra 30,000 MWCO filter.
as §1
The rate of the reaction was directly proportional to the amount of protein extract added (FIG. 2B). […] If the extract was heated in a boiling water bath for 5 min, the activity was completely destroyed. […] Moreover, since the source material was axenically grown, the activity must have been derived from the Arabidopsis rather than a contaminating microorganism.

[8] = target: AGD2 protein (At4g33680) (Arabidopsis thaliana, UniProt Q93ZN9); settings: transamination of Lys, Song et al. (2004); cited from earlier work
AGD2 protein (At4g33680), sequence (Q93ZN9 46-461): as above

[9] = tested on: LL-DAP transaminase; experiment: Quantitative reverse assay of purified microbial LL-DAP transaminases; type: biochemical; settings: reverse
Description: (§3) Enzyme assays were performed as described above in Examples I and II.
(§4) The catalytic properties of sll0480, BF2643, Dhaf—3980, MTH52, and SfumDRAFT0821 were studied in greater detail using purified enzymes to determine their kinetic constants using quantitative forward and reverse assays.

[10] = tested on: LL-DAP transaminase; experiment: Quantitative forward assay of purified microbial LL-DAP transaminases; type: biochemical
Description: as §3, §4

[11] = target: T3, LL-DAP transaminase (Synechocystis sp., UniProt Q55828); experiment: Quantitative reverse assay of purified microbial LL-DAP transaminases; type: biochemical; settings: keto acids (5 mM) substituted for 2-oxoglutarate in reverse and for THDPA in forward reaction
T3 construct: His-Tag; made in house; host or cells: E. coli BL21-CodonPlus-RIPL
T3 sequence (Q55828 whole entry): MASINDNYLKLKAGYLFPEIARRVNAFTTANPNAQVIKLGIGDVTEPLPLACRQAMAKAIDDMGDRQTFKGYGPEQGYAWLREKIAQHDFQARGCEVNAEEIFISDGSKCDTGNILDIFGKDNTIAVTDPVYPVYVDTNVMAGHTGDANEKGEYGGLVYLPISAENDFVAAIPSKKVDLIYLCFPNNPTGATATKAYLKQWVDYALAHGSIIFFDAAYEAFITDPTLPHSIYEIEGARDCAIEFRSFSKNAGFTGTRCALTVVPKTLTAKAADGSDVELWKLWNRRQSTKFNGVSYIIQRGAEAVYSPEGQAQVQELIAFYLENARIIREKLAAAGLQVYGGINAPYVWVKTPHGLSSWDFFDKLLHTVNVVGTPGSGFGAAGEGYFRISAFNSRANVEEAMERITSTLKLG
Description: as §3, §4

Compound: NC(CCCCC(=O)O)C(=O)O (racemic) [L, D-α-aminopimelate]
- Inhibition % ([1]; inhibitor 5 mM): 50+ %
- Inhibition % ([1]; inhibitor 10 mM): 83+ %

Compound: NC(CCC(O)C(N)C(=O)O)C(=O)O (racemic) [Threo-β-hydroxy DAP (racemic), Threo-β-hydroxy DAP]
- inhibition at 40000 µM [2]: 68%

Compound: O=C(O)CCC(=O)C(=O)O [2-OG, 2-oxoglutarate, reference compound]
- Km [3]: 650 µM

Compound: O=C(O)CCC(=O)C(=O)O [2-OG, 2-oxoglutarate]
- Km [4]: 800 µM

Compound: N[C@@H](CCC(=O)O)C(=O)O [Glu, glutamate, reference compound]
- Km [5]: 1000 µM

Compound: N[C@@H](CCC[C@H](N)C(=O)O)C(=O)O [LL-DAP, LL-2,6-diaminopimelate]
- Km [3]: 20 µM
- Km for LL-DAP lower than the value for Lys ([6]; compared with Km of 58.8 mM for Lys of Song et al. (2004)): 830 fold
- Kcat ([6]; reverse assay, pH 7.5, 30° C.): 17.6 s⁻¹

Compound: NCCCC[C@H](N)C(=O)O [Lys, lysine]
- Use as amino donor by CT390 [3]: unable to use
- Inhibition of the use of LL-DAP (LL-DAP-AT activity) [7]: did not inhibit
- Km [8]: 58800 µM

Compound: O=C(O)C1=N[C@H](C(=O)O)CCC1 [THDPA, L-2,3,4,5-tetrahydrodipicolinate]
- Kcat ([6]; forward assay, pH 7.5): 0.3 s⁻¹
- Km [5]: 200 µM

Compound: N[C@@H](CCSC[C@H](N)C(=O)O)C(=O)O [cystathionine]
- Use as amino donor by CT390 [3]: unable to use

Compound: NC(CCCC(N)C(=O)O)C(=O)O (centres unmarked) [m-DAP, m-2,6-diaminopimelate]
- Use as amino donor by CT390 [3]: able to use
- Inhibition of the use of LL-DAP (LL-DAP-AT activity) [7]: did not inhibit

Compound: Mth52: LL-DAP transaminase from M. thermoautotrophicum
- Km ([9]; read-out: Km 2-OG, substrate 2-OG): 800 µM
- Vmax R [9]: 4.7 µmol/min/mg
- Vmax F [10]: 0.6 µmol/min/mg

Compound: sII0480: LL-DAP transaminase from Synechocystis sp.
- Keto acid specificity [11]: active only with 2-oxoglutarate or THDPA
- Vmax R [9]: 3.3 µmol/min/mg
- Vmax F [10]: 0.25 µmol/min/mg
